From ChEMBL document CHEMBL1201862, “PubChem BioAssay data set” (2004)
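These data come from cells grown in 96-well plates and exposed to compound for 48 hours at five concentrations. Here, GI50 denotes the concentration required for 50% inhibition of growth.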 Activity calls are given as the source filed them. Cut-off read from the data, not from the text of the source: active = GI50 up to about 1.1 µM and inactive = higher. Residues, ends and D or L forms follow the SMILES beside them. *: point of attachment. OBn = c1ccc(CO*)cc1

Assays:
Test in all cases: NCI tumour cell line growth inhibition, 48 h
[1] = system: 786-0
[2] = system: COLO 205
[3] = system: DU-145
[4] = system: EKVX
[5] = system: HL-60
[6] = system: HOP-62
[7] = system: HOP-92
[8] = system: Hs-578T
[9] = system: IGROV-1
[10] = system: KM12
[11] = system: M14
[12] = system: MDA-MB-231
[13] = system: Malme-3M
[14] = system: NCI-H522
[15] = system: NCI/ADR-RES
[16] = system: SF-268
[17] = system: SF-295
[18] = system: SR
[19] = system: UACC-62
[20] = system: A549

SMILES | GI50 [1] | GI50 [2] | GI50 [3] | GI50 [4] | GI50 [5] | GI50 [6] | GI50 [7] | GI50 [8] | GI50 [9] | GI50 [10] | GI50 [11] | GI50 [12] | GI50 [13] | GI50 [14] | GI50 [15] | GI50 [16] | GI50 [17] | GI50 [18] | GI50 [19] | GI50 [20]
O=C1NC(c2ccccc2)C1N(Cc1ccccc1)Cc1ccccc1 (stereo not drawn) | > 100 µM (inactive) | > 100 µM (inactive) | > 100 µM (inactive) | > 100 µM (inactive) | > 100 µM (inactive) | > 100 µM (inactive) | > 100 µM (inactive) | 61.2 µM (inactive) | > 100 µM (inactive) | > 100 µM (inactive) | > 100 µM (inactive) | 74.1 µM (inactive) | > 100 µM (inactive) | > 100 µM (inactive) | > 100 µM (inactive) | > 100 µM (inactive) | > 100 µM (inactive) | > 100 µM (inactive) | 93.1 µM (inactive) | 
CCOC1=C/C(=N\Nc2ccc([N+](=O)[O-])cc2)CCC1 | 32.4 µM (inactive) | 15.3 µM (inactive) | > 100 µM (inactive) | 87.9 µM (inactive) | 13.6 µM (inactive) | 37.5 µM (inactive) | 39.8 µM (inactive) | 38.5 µM (inactive) | 15 µM (inactive) | 14.3 µM (inactive) | 49.4 µM (inactive) | 27.9 µM (inactive) | 96.2 µM (inactive) | 4.45 µM (inactive) | 30.1 µM (inactive) | 11.3 µM (inactive) | 13.1 µM (inactive) | 4.53 µM (inactive) | 22.5 µM (inactive) | 71.6 µM (inactive)
C[C@]12CC[C@H]3[C@@H](CCC4=C[C@@H](OC5OCC(OC6OC(CO)C(O)C(O)C6O)C(O)C5O)CC[C@@]43C=O)[C@@]1(O)CCC2C1=CC(=O)OC1 (stereo partly drawn) | 0.365 µM (active) | 1.35 µM (inactive) | 0.435 µM (active) | 0.441 µM (active) | 0.244 µM (active) | 0.431 µM (active) | 1.11 µM (active) | 0.522 µM (active) | 0.351 µM (active) | 2.71 µM (inactive) | 1.21 µM (inactive) | 3.02 µM (inactive) | 0.59 µM (active) | 0.203 µM (active) | 0.469 µM (active) | 0.36 µM (active) | 0.638 µM (active) | 0.221 µM (active) | 1.81 µM (inactive) | 0.165 µM (active)
NC(CCC(=O)OCc1ccccc1)C(=O)NC(CCC(=O)OCc1ccccc1)C(=O)O (stereo not drawn) (H-Glu(OBn)-Glu(OBn)-OH; configuration not given here) | > 100 µM (inactive) | > 100 µM (inactive) | > 100 µM (inactive) | > 100 µM (inactive) | > 100 µM (inactive) | > 100 µM (inactive) | > 100 µM (inactive) | > 100 µM (inactive) | > 100 µM (inactive) | > 100 µM (inactive) | > 100 µM (inactive) | > 100 µM (inactive) | > 100 µM (inactive) | > 100 µM (inactive) | > 100 µM (inactive) | > 100 µM (inactive) | > 100 µM (inactive) | > 100 µM (inactive) | > 100 µM (inactive) | > 100 µM (inactive)
S=C1Cc2cc3ccccc3nc2-c2ccccc2N1 | 12.6 µM (inactive) | 54 µM (inactive) | 70.8 µM (inactive) | 38 µM (inactive) | > 100 µM (inactive) | 11.6 µM (inactive) | 8.87 µM (inactive) | 5.64 µM (inactive) | 29 µM (inactive) | 19.3 µM (inactive) | 26.7 µM (inactive) | 10.4 µM (inactive) | 27.5 µM (inactive) | 24.9 µM (inactive) | 10.1 µM (inactive) | 7.01 µM (inactive) | 22.7 µM (inactive) | 29 µM (inactive) | 8.45 µM (inactive) | 26.1 µM (inactive)
O=C1Nc2ccccc2SC1=C(C(=O)c1ccccc1)C(=O)c1ccccc1 | 43.7 µM (inactive) | 29.2 µM (inactive) | 38.1 µM (inactive) | 34.8 µM (inactive) | 0.091 µM (active) | 46.7 µM (inactive) | 38.1 µM (inactive) | 31.6 µM (inactive) | 42.3 µM (inactive) | 34 µM (inactive) | 28.3 µM (inactive) | 27.1 µM (inactive) | > 85.7 µM (inactive) | 20.4 µM (inactive) | 40.1 µM (inactive) | 32.1 µM (inactive) | 17.1 µM (inactive) | 17.7 µM (inactive) | 20.7 µM (inactive) | 36.6 µM (inactive)
O=C(CC(c1ccccc1)c1c(O)c2ccccc2oc1=O)c1ccccc1 (stereo not drawn) | > 100 µM (inactive) | 59.7 µM (inactive) | > 89.1 µM (inactive) | 72.1 µM (inactive) | 90.2 µM (inactive) | > 100 µM (inactive) | > 44.3 µM (inactive) | > 69.5 µM (inactive) | > 100 µM (inactive) | > 100 µM (inactive) | > 100 µM (inactive) | > 100 µM (inactive) | > 84.9 µM (inactive) | 47 µM (inactive) | 54.2 µM (inactive) | > 100 µM (inactive) | > 76.7 µM (inactive) | 44.6 µM (inactive) | 38.4 µM (inactive) | 54.6 µM (inactive)
Cc1cc(=O)oc2cc(OC(=O)Nc3ccccc3)ccc12 | > 100 µM (inactive) | 53.5 µM (inactive) | 76.9 µM (inactive) | > 100 µM (inactive) | 20.6 µM (inactive) | > 100 µM (inactive) | 29.3 µM (inactive) | 64.4 µM (inactive) | 69.8 µM (inactive) | 32.4 µM (inactive) | > 100 µM (inactive) | > 100 µM (inactive) | > 100 µM (inactive) | 53.1 µM (inactive) | 63.2 µM (inactive) | > 100 µM (inactive) | > 100 µM (inactive) | 29.5 µM (inactive) | 41.2 µM (inactive) | 62.1 µM (inactive)
O=C(O)Cn1ccnc1[N+](=O)[O-] | > 100 µM (inactive) | > 100 µM (inactive) | > 100 µM (inactive) | > 100 µM (inactive) | > 100 µM (inactive) | > 100 µM (inactive) | > 100 µM (inactive) | > 100 µM (inactive) | > 100 µM (inactive) | > 100 µM (inactive) | > 100 µM (inactive) | > 100 µM (inactive) | > 100 µM (inactive) | > 100 µM (inactive) | > 100 µM (inactive) | > 100 µM (inactive) | > 100 µM (inactive) | > 100 µM (inactive) | > 100 µM (inactive) | > 100 µM (inactive)
CCCCON1C[C@@H](O)C(O)[C@@H](O)C1 (stereo partly drawn) | > 100 µM (inactive) | > 100 µM (inactive) | > 100 µM (inactive) | > 100 µM (inactive) | > 100 µM (inactive) | > 100 µM (inactive) | > 100 µM (inactive) | > 100 µM (inactive) | > 100 µM (inactive) | > 100 µM (inactive) | > 100 µM (inactive) | > 100 µM (inactive) | > 100 µM (inactive) | > 100 µM (inactive) | > 100 µM (inactive) | > 100 µM (inactive) | > 100 µM (inactive) | > 100 µM (inactive) | > 100 µM (inactive) | > 100 µM (inactive)
O=[N+]([O-])C(=C(\Cl)NCCO)/C(Cl)=C(/Cl)Br | 1.19 µM (inactive) | 1.38 µM (inactive) | 7.74 µM (inactive) | 4.85 µM (inactive) | 0.791 µM (active) | 10.8 µM (inactive) | 1.56 µM (inactive) | 6 µM (inactive) | 2.77 µM (inactive) | 5.57 µM (inactive) | 1.57 µM (inactive) | 1.74 µM (inactive) | 1.62 µM (inactive) | 1.1 µM (active) | 2.34 µM (inactive) | 1.62 µM (inactive) | 12.1 µM (inactive) | 1.11 µM (active) | 1.75 µM (inactive) | 7.91 µM (inactive)
COc1ccc(/C=C2\N=C(N3CCCCC3)NC2=O)cc1 | > 100 µM (inactive) | > 100 µM (inactive) | > 100 µM (inactive) | > 100 µM (inactive) | > 100 µM (inactive) | > 100 µM (inactive) | > 100 µM (inactive) | > 100 µM (inactive) | > 100 µM (inactive) | 52.1 µM (inactive) | > 100 µM (inactive) | > 100 µM (inactive) | > 100 µM (inactive) | 57.4 µM (inactive) | > 100 µM (inactive) | > 100 µM (inactive) | > 100 µM (inactive) | 72.1 µM (inactive) | > 100 µM (inactive) | > 100 µM (inactive)
C[C@H](CCC(=O)O)[C@H]1CC[C@H]2[C@@H]3[C@H](O)C[C@@H]4C[C@H](O)CC[C@]4(C)[C@H]3C[C@H](O)[C@]12C | > 100 µM (inactive) | > 100 µM (inactive) | > 100 µM (inactive) | > 100 µM (inactive) | > 100 µM (inactive) | > 100 µM (inactive) | > 100 µM (inactive) | > 100 µM (inactive) | > 100 µM (inactive) | > 100 µM (inactive) | > 100 µM (inactive) | > 100 µM (inactive) | > 100 µM (inactive) | > 100 µM (inactive) | > 100 µM (inactive) | > 100 µM (inactive) | > 100 µM (inactive) | > 100 µM (inactive) | > 100 µM (inactive) | > 100 µM (inactive)
CC[C@H](C)[C@@H]([C@@H](CC(=O)N1CCC[C@H]1[C@H](OC)[C@@H](C)C(=O)NCCc1ccccc1)OC)N(C)C(=O)C(NC(=O)[C@H](C(C)C)N(C)C)C(C)C (stereo partly drawn) | 0.00021 µM (active) | 9.16e-05 µM (active) | 0.000227 µM (active) | 0.000964 µM (active) | 7.02e-05 µM (active) | 0.000235 µM (active) | 0.0069 µM (active) | 0.000446 µM (active) | 0.000363 µM (active) | 8.57e-05 µM (active) | 0.000203 µM (active) | 0.000526 µM (active) | 0.001 µM (active) | 5.83e-05 µM (active) | 0.00736 µM (active) | 0.000658 µM (active) |  | 2.57e-05 µM (active) | 0.000275 µM (active) | 0.000248 µM (active)
